Measured values: ChEMBL document CHEMBL4400564, “Structure-activity relationship studies of Bz amide-containing α-GalCer derivatives as natural killer T cell modulators” (Bioorg Med Chem Lett, 2019)
Activity calls are given as the source filed them.

Assays:
[1] = molecular target: T1, Antigen-presenting glycoprotein CD1d1 (Mus musculus) (UniProt P11609); assay: Binding affinity to Ig-tagged mouse CD1d assessed as increase in IL-2 production in NKT hybridoma cells exposed to 24 hrs pre-treated compound/CD1d mixture and measured after 48 hrs by ELISA based APC free assay; assay type: cell-based
T1 sequence (whole entry): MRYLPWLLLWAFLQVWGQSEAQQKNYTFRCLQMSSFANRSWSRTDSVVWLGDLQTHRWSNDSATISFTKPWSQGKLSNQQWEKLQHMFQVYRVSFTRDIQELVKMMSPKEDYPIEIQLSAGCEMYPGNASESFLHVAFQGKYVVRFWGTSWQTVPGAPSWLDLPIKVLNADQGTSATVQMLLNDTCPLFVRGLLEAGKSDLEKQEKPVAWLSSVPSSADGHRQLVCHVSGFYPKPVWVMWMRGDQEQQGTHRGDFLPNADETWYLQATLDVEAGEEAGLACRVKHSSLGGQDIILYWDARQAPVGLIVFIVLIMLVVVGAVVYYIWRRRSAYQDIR

Splenocyte [2] = assay: Reduction of IFN-gamma production in C57BL/6J mouse splenocyte at 1 to 100 nM after 48 hrs by ELISA relative to alpha-GalCer; assay type: functional, cell-based
Splenocyte [3] = assay: Induction of IL-4 production in C57BL/6J mouse splenocyte at 1 to 100 nM after 48 hrs by ELISA relative to alpha-GalCer; assay type: functional, cell-based

Measured: Activity

CCCCCCCCCCCCCC[C@@H](O)[C@@H](O)[C@H](CO[C@H]1O[C@H](CO)[C@H](O)[C@H](O)[C@H]1O)NC(=O)CCCCCCCCCCCNC(=O)C1CCCCC1
active: [1] Dose-dependent effect | Splenocyte [2] | Splenocyte [3]

CCCCCCCCCCCCCC[C@@H](O)[C@@H](O)[C@H](CO[C@H]1O[C@H](CO)[C@H](O)[C@H](O)[C@H]1O)NC(=O)CCCCCCCCCCCNC(=O)c1ccccc1
active: [1] Dose-dependent effect | Splenocyte [2] | Splenocyte [3]

CCCCCCCCCCCCCC[C@@H](O)[C@@H](O)[C@H](CO[C@H]1O[C@H](CO)[C@H](O)[C@H](O)[C@H]1O)NC(=O)CCCCCCCCCCCNC(=O)c1cccc(F)c1
active: [1] Dose-dependent effect | Splenocyte [2] | Splenocyte [3]

CCCCCCCCCCCCCC[C@@H](O)[C@@H](O)[C@H](CO[C@H]1O[C@H](CO)[C@H](O)[C@H](O)[C@H]1O)NC(=O)CCCCCCCCCCCNC(=O)C1CCNCC1
active: [1] Dose-dependent effect | Splenocyte [2] | Splenocyte [3]

CCCCCCCCCCCCCC[C@@H](O)[C@@H](O)[C@H](CO[C@H]1O[C@H](CO)[C@H](O)[C@H](O)[C@H]1O)NC(=O)CCCCCCCCCCCNC(=O)c1ccccc1F
active: [1] Dose-dependent effect | Splenocyte [2] | Splenocyte [3]

CCCCCCCCCCCCCC[C@@H](O)[C@@H](O)[C@H](CO[C@H]1O[C@H](CO)[C@H](O)[C@H](O)[C@H]1O)NC(=O)CCCCCCCCCCCNC(=O)C(C)(C)C
active: [1] Dose-dependent effect | Splenocyte [2] | Splenocyte [3]

CCCCCCCCCCCCCC[C@@H](O)[C@@H](O)[C@H](CO[C@H]1O[C@H](CO)[C@H](O)[C@H](O)[C@H]1O)NC(=O)CCCCCCCCCCCNC(=O)c1ccc(OC)cc1
active: [1] Dose-dependent effect | Splenocyte [2] | Splenocyte [3]

CCCCCCCCCCCCCC[C@@H](O)[C@@H](O)[C@H](CO[C@H]1O[C@H](CO)[C@H](O)[C@H](O)[C@H]1O)NC(=O)CCCCCCCCCCCNC(=O)c1ccccc1OC
active: [1] Dose-dependent effect | Splenocyte [2] | Splenocyte [3]

CCCCCCCCCCCCCC[C@@H](O)[C@@H](O)[C@H](CO[C@H]1O[C@H](CO)[C@H](O)[C@H](O)[C@H]1O)NC(=O)CCCCCCCCCCCNC(=O)c1cccc(OC)c1
active: [1] Dose-dependent effect | Splenocyte [2] | Splenocyte [3]

CCCCCCCCCCCCCC[C@@H](O)[C@@H](O)[C@H](CO[C@H]1O[C@H](CO)[C@H](O)[C@H](O)[C@H]1O)NC(=O)CCCCCCCCCCCNC(=O)c1ccc(F)cc1
active: [1] Dose-dependent effect | Splenocyte [2] | Splenocyte [3]
